Measured values from patent US20170296540A1, “METHODS OF TREATING FRIEDREICH'S ATAXIA USING SRC INHIBITORS” (Fratagene Therapeutics S.R.L., priority 2014, published 2017).
“Also recorded” adds a separate entry of the source. Where two headings read alike, the source gives them in different places.

Experiments:
[1] = tested on: endogenous frataxin in HEK293 cells; test: Endogenous frataxin accumulation in HEK293 cells (western blot, densitometry); assay type: cell-based, human; conditions: 1, 3 and 10 μM, 24 h
Procedure: Human HEK293 cells were treated with 1, 3 and 10 μM of SU6656, PP2, and dasatinib Src inhibitor or vehicle (−) for 24 h. Frataxin (FXN) and tubulin expression (TUB) was analyzed by western blot. Data are representative of three independent experiments. […] Right panels: densitometric quantification of frataxin accumulation. Frataxin expression was normalized with tubulin and frataxin expression in non-treated cells (NT) set to one. Data represent the mean±1 S.E.M. from three different independent experiments performed for each inhibitor in the left panels.
Human embryonic kidney HEK-293 cells were cultured in Dulbecco's modified Eagle's medium (DMEM) supplemented with 10% fetal bovine serum (FBS). […]
Cell lysates (100 μg) were resolved by SDS-PAGE and analyzed by immunoblot with specific mAb anti-frataxin clone 1G2 and STR-23 (Immunological Sciences, Rome, Italy) mAb anti-tubulin (Sigma), mAb anti-actin (Sigma), mAb anti-phosphotyrosine (Millipore), pAb anti-phospho-Src (Life Technologies), mAb anti-GFP (Takara), secondary antibody horseradish peroxidase-conjugated goat anti-mouse (Pierce), secondary antibody horseradish peroxidase-conjugated mouse anti-rabbit (Pierce), secondary antibody horseradish peroxidase-conjugated goat anti-Fc anti-mouse (Thermo Scientific) using ECL system detection (GE Healthcare Europe GmbH, Milan, Italy). […]

[2] = tested on: HEK293^FXN cells stably expressing non-phosphorylable Y118F frataxin mutant; test: Frataxin accumulation (western blot, densitometry) in HEK293^FXN cells expressing Y118F frataxin mutant; assay type: cell-based, human; conditions: 1, 3 and 10 μM, 24 h
Procedure: (§1) FIG. 4. […] HEK293^FXN cells stably expressing single copy of wild type frataxin (WT) or non-phosphorylable Y118F frataxin mutant (Y118F) were treated for 24 h with 1, 3, and 10 μM of either Src inhibitor SU6656, PP2, dasatinib, bosutinib, saracatinib, or vehicle (−). […] Data are representative of three independent experiments. The precursor (P), intermediate (I) and mature (M) frataxin forms are indicated. Right panels: Densitometric quantification of frataxin accumulation for the corresponding inhibitor.
(§2) HEK-293 Flp-In cells (Life Technologies) are HEK-293 variants allowing the stable and isogenic integration and expression of a transfected gene. The HEK-293 clone stably expressing frataxin^1-210 (Condo et al. 2007) and the clone stably expressing frataxin^V118F were generated by mutagenesis as described below. HEK-293 Flp-In cells were maintained in DMEM supplemented with 10% FBS.
(§3) Densitometric analyses were performed using ImageLab software (Biorad).
(§4) Because phosphorylation on Y118 promotes ubiquitination and that preventing ubiquitin-dependent degradation increases frataxin levels (Rufini et al. 2011), the effects of frataxin phosphorylation by Src kinase were tested for enhancement of frataxin expression.

[3] = tested on: HEK293^FXN cells stably expressing single copy of wild type frataxin; test: Frataxin accumulation (western blot, densitometry) in HEK293^FXN cells expressing wild type frataxin; assay type: cell-based, human; conditions: 1, 3 and 10 μM, 24 h
Procedure: as §1, §2, §3, §4

[4] = tested on: FRDA patient-derived B cells (GM16214)
Procedure: (§5) Left panels: mature frataxin (FXN) and tubulin expression (TUB) was analyzed by western blot. Data are representative of three independent experiments. Right panels: densitometric quantification of frataxin accumulation. Frataxin expression was normalized with tubulin and frataxin expression in non-treated cells (NT) set to one. Data represent the mean±1 S.E.M. from three different independent experiments performed for each inhibitor in the left panels.
(§6) Total cell extracts were prepared in ice-cold modified RIPA buffer (10 mM sodium phosphate pH 7.2, 150 mM NaCl, 1% Na deoxycholate, 0.1% SDS, 1% Nonidet P-40, 2 mM EDTA) or IP buffer (50 mM Tris-HCl, pH 7.5, 150 mM NaCl, 1% Nonidet P-40, 5 mM EDTA, 5 mM EGTA) supplemented with complete protease inhibitor cocktail (Roche Diagnostics, Milan, Italy), sodium orthovanadate 1 mM and NaF 25 mM to inhibit phosphatases.
(§7) Cell lysates (100 μg) were resolved by SDS-PAGE and analyzed by immunoblot with specific mAb anti-frataxin clone 1G2 and STR-23 (Immunological Sciences, Rome, Italy) mAb anti-tubulin (Sigma), mAb anti-actin (Sigma), mAb anti-phosphotyrosine (Millipore), pAb anti-phospho-Src (Life Technologies), mAb anti-GFP (Takara), secondary antibody horseradish peroxidase-conjugated goat anti-mouse (Pierce), secondary antibody horseradish peroxidase-conjugated mouse anti-rabbit (Pierce), secondary antibody horseradish peroxidase-conjugated goat anti-Fc anti-mouse (Thermo Scientific) using ECL system detection (GE Healthcare Europe GmbH, Milan, Italy).
(§8) For treatment longer than 24 h, inhibitors were added every 2 days, and each time lymphoblasts were centrifuged and resuspended at 400.000 cells/ml with the indicated concentration of inhibitor.
(§9) FRDA lymphoblasts were exposed to these inhibitors for different time periods.

[5] = tested on: FRDA patient-derived B cells (GM16214); test: Frataxin accumulation in frataxin-deficient FRDA patient-derived B cells (western blot, densitometry); conditions: for frataxin accumulation in frataxin-deficient cells (mature frataxin): FRDA patient-derived B cells, 10 μM, time course 24 h to 72 h
Procedure: as §5, §6, §7, §8, §9

[6] = tested on: HEK293^FXN cells stably expressing a single copy of wild-type frataxin; test: Frataxin precursor accumulation with Src inhibitor, ubiquitin competing molecule or combination in HEK293^FXN cells; conditions: F166 1 uM; 24 h
Procedure: Data are representative of four independent experiments. […] The frataxin expression was normalized with tubulin, and frataxin expression in non-treated cells (−) was set to 1. Data represent the mean±1 S.E.M. from four independent experiments.
The frataxin precursor (FXN) and tubulin expression (TUB) were analyzed by western blot (FIG. 7A). The data shown are representative of four independent experiments.
The amount of frataxin accumulation was quantified by densitometry (FIG. 7B). Frataxin expression was normalized with tubulin, and frataxin expression in non-treated cells (−) was set to 1. The data shown represent the mean±1 S.E.M. from four independent experiments.

nude mice = conditions: mouse, in vivo, po; cited from earlier work

Row | SMILES | endogenous frataxin accumulation [1] | frataxin accumulation (frataxin normalized with tubulin, non-treated cells set to one) [2] | frataxin accumulation (frataxin normalized with tubulin, non-treated cells set to one) [3] | tolerability in cells [4] | frataxin accumulation in frataxin-deficient cells (mature frataxin) [5] | frataxin precursor accumulation, single agent [6] | tolerability in cells ([5]; FRDA patient-derived B cells (GM16214)) | toxicity of regimen (nude mice)
1 | CN(C)S(=O)(=O)c1ccc2c(c1)/C(=C/c1cc3c([nH]1)CCCC3)C(=O)N2 [SU6656] | promote endogenous frataxin accumulation | not the non-phosphorylable Y118F frataxin mutant | upregulate wild type frataxin | best tolerated | further accumulated within 72 h; also recorded: promote frataxin accumulation |  |  | 
2 | CC(C)(C)n1nc(-c2ccc(Cl)cc2)c2c(N)ncnc21 [PP2] | promote endogenous frataxin accumulation | not the non-phosphorylable Y118F frataxin mutant | upregulate wild type frataxin | best tolerated | promote frataxin accumulation |  |  | 
3 | COc1ccccc1C(=O)N/N=C(\C)c1ccc2c(c1)Nc1ccccc1S2 [F166] |  |  |  |  |  | accumulate frataxin precursor |  | 
4 | Cc1nc(Nc2ncc(C(=O)Nc3c(C)cccc3Cl)s2)cc(N2CCN(CCO)CC2)n1 [dasatinib] |  |  |  |  |  |  | best tolerated | no toxicity
